Three molecules from US12643867B2, “Compositions and uses thereof” (University of Virginia Patent Foundation, priority 2017, dated 2026) can be followed below.

For test [1], the target named is T1, M4K3 (Mitogen-activated protein kinase kinase kinase kinase 3) (Homo sapiens, UniProt Q8IVH8).
T1 construct: Native kinases; endogenous in cells; host or cells: HEK293T soluble proteome
T1 sequence (Q8IVH8 1-894): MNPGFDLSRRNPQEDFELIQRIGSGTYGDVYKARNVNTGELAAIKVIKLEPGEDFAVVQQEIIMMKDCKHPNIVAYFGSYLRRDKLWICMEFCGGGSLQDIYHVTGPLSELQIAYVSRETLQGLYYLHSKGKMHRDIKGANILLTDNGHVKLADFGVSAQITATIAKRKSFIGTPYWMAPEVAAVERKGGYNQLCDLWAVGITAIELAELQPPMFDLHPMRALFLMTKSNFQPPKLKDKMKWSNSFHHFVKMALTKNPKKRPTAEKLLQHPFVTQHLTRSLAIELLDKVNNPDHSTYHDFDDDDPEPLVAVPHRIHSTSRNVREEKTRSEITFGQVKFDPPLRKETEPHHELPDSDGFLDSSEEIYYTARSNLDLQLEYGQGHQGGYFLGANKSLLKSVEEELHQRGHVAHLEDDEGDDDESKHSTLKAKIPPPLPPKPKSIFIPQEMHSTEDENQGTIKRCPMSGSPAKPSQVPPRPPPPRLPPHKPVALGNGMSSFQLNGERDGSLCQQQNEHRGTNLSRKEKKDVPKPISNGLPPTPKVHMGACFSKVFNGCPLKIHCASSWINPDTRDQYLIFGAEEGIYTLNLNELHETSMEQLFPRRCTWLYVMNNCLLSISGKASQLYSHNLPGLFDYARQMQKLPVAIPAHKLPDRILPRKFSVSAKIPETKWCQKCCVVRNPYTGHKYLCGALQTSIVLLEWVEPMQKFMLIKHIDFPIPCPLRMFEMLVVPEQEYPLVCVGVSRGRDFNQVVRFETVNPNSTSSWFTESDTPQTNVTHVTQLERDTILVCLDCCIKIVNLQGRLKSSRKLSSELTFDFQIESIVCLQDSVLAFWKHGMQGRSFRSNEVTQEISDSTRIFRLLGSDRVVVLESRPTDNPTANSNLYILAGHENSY
Nature of the test: SILAC LC-MS ATP acyl phosphate probe competition, native kinases in HEK293T. It is filed as binding. Particulars: site Lys2; ATP 1 mM; Ketanserin, Ritanserin 100 μM; RF001 1 mM. In short, it runs like this:
(§1)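 First, HEK293T proteomes at 2 mg/ml in kinase buffer were exposed to compound (heavy) or DMSO (light) for 30 min at 25° C. Next, samples were pooled 1:1 and trypsin/Lys-C digested. Finally, desthiobiotin peptides were enriched on avidin and measured by data-dependent LC-MS/MS.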

Test [2] addresses T2, KCC1D (Calcium/calmodulin-dependent protein kinase type 1D) (Homo sapiens, UniProt Q8IU85).
T2 construct: measured against >50 native kinases quantified in HEK293T soluble proteomes; endogenous in cells; host or cells: HEK293T soluble proteome
The test is described as above. It is filed as binding. Particulars: site Lys1; ATP 1 mM; Ketanserin, Ritanserin 100 μM; RF001 1 mM. Summed up:
as §1

The structures appear in SMILES notation.

T2 sequence (Q8IU85 whole entry): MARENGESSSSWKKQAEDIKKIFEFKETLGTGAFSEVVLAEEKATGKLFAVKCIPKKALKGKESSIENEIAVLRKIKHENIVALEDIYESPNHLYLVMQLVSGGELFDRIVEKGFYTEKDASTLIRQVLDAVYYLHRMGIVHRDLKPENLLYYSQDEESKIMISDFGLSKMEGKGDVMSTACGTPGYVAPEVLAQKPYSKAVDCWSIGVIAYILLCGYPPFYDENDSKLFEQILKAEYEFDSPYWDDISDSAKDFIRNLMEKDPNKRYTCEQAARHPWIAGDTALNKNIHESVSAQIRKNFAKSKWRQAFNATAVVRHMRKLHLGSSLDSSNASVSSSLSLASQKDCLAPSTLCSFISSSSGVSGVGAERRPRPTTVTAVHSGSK

On to `O=C(c1ccc(F)cc1)C1CCN(CCn2c(=O)[nH]c3ccccc3c2=O)CC1` [Ketanserin], for which the “SILAC ratio, M4K3 probe-modified peptide” value in test [1] is listed as 1.4. Moreover, the “SILAC ratio, KCC1D probe-modified peptide” value in test [2] worked out at 1.5.
With `Fc1ccc(C(=C2CCNCC2)c2ccc(F)cc2)cc1` [RF001, 4-(Bis(4-fluorophenyl)methylene) piperidine], the “SILAC ratio, M4K3 probe-modified peptide” value in test [1] was 1.1. In addition, the “SILAC ratio, KCC1D probe-modified peptide” value in test [2] was 1.1.
As to `Cc1nc2sccn2c(=O)c1CCN1CCC(=C(c2ccc(F)cc2)c2ccc(F)cc2)CC1` [Ritanserin], the “SILAC ratio, M4K3 probe-modified peptide” value in test [1] is recorded as 1.8. Besides, in test [2], the “SILAC ratio, KCC1D probe-modified peptide” value is given as 2.3.
